Among the data in ChEMBL document CHEMBL1268846, “Synthesis and antiproliferative evaluation of N,N-disubstituted-N'-[1-aryl-1H-pyrazol-5-yl]-methnimidamides” (2010) are GI50 values, retold here.

Format in all cases: functional
The test system of one assay is NCI-H661. As to the kind of experiment: Growth inhibition of human NCI-H661 cells after 72 hrs by MTT assay. Particulars: NCI-H661, 72 h.
The test system of a further assay is Jurkat. The assay is described as follows: Growth inhibition of human Jurkat cells after 72 hrs by MTT assay.
A short description of assay [1]: Growth inhibition of human NPC-TW01 cells after 72 hrs by MTT assay. The settings on record: NPC-TW01, 72 h.

Where only a bound is given, the exact number is not on record here.

A word on the GI50: it is the concentration at which growth is held to half of that of the control. Low readings indicate more potent growth inhibition, high ones less potent growth inhibition. As to `CN/C=N/c1cc(-c2ccccc2)nn1-c1ccccc1`, the GI50 (with NCI-H661; in the assay with Jurkat; in assay [1]) was above 50 µM throughout.

For `CN/C(C)=N/c1cc(-c2ccccc2)nn1-c1ccccc1`, the GI50 (in the assay with NCI-H661; in the assay with Jurkat; in assay [1]) was above 50 µM in each case.

For `C/C(=N\c1cc(-c2ccccc2)nn1-c1ccccc1)N(C)C`, the GI50 is 35.1 µM in the assay with NCI-H661, above 50 µM in the assay with Jurkat and above 50 µM in assay [1].

Turning to `CN(C)/C=N/c1c(C=O)c(-c2ccccc2)nn1-c1ccccc1`, the GI50 stood at 31.4 µM in the assay with NCI-H661, 23.5 µM in the assay on Jurkat and 9.3 µM in assay [1].

On to `CN(C)/C=N/c1c(C=O)c(C(C)(C)C)nn1-c1ccccc1`, for which the GI50 was 42.8 µM in the assay on NCI-H661, 43.5 µM with Jurkat and above 50 µM in assay [1].

In the case of `CN(C)/C(=N/c1cc(-c2ccccc2)nn1-c1ccccc1)c1ccccc1`, the results for the GI50 (in the assay on NCI-H661; in the assay on Jurkat; in assay [1]) were 46.7 µM, 36.1 µM and 20.8 µM, respectively.

`CCN(/C=N/c1c(C=O)c(-c2ccccc2)nn1-c1ccccc1)CC`: the GI50 with NCI-H661 was found to be 28.8 µM; in the assay on Jurkat, 30 µM; in assay [1], 30.5 µM.

For `O=Cc1c(-c2ccccc2)nn(-c2ccccc2)c1/N=C/N1CCCCC1`, the GI50 stood at 17.7 µM in the assay with NCI-H661, 29 µM in the assay with Jurkat and 24.4 µM in assay [1].

Consider `CN(C)/C=N/c1c(C=O)c(-c2ccccc2)nn1-c1ccc(Br)cc1`, for which the GI50 with NCI-H661 came out at 6.7 µM; in the assay with Jurkat, 7.3 µM; in assay [1], 7.4 µM.

Turning to `COc1ccc(-n2nc(-c3ccccc3)c(C=O)c2/N=C/N(C)C)cc1`, the 50% growth inhibitory concentration (GI50) in the assay on NCI-H661 amounted to 33.4 µM; in the assay on Jurkat it was 19.7 µM; in assay [1], 20.2 µM.

`CC/C(=N\c1cc(-c2ccccc2)nn1-c1ccccc1)NC`: the GI50 (in the assay with NCI-H661; in the assay on Jurkat; in assay [1]) was above 50 µM in each case.

On to `O=Cc1c(-c2ccccc2)nn(-c2ccccc2)c1/N=C/N1CCCC1`, for which the figures for the GI50 (with NCI-H661; in the assay on Jurkat; in assay [1]) were 17.6 µM, 31.3 µM and above 50 µM, respectively.

For `CN(C)/C=N/c1c(C=O)c(-c2ccccc2)nn1-c1cccc(Cl)c1`, the GI50 with NCI-H661 is 6.9 µM; in the assay with Jurkat it was 8.3 µM; in assay [1], 6.4 µM.

With `Cc1ccc(-c2nn(-c3ccccc3)c(/N=C/N(C)C)c2C=O)cc1`, the GI50 with NCI-H661 stood at 11.9 µM; with Jurkat, 9.5 µM; in assay [1], 9.7 µM.

As to `CN(C)/C=N/c1c(C=O)c(-c2ccc(Cl)cc2)nn1-c1ccccc1`, the GI50 came out at 8.6 µM in the assay with NCI-H661, 7.9 µM in the assay with Jurkat and 8.1 µM in assay [1].

Regarding `CN(C)/C=N/c1c(C=O)c(-c2ccccc2)nn1-c1cccc([N+](=O)[O-])c1`, the figures for the GI50 (in the assay on NCI-H661; in the assay on Jurkat; in assay [1]) were 50 µM, above 50 µM and 36.7 µM, respectively.

On to `CN(C)/C=N/c1c(C=O)c(-c2ccccc2)nn1-c1ccccc1Cl`, for which the GI50 in the assay with NCI-H661 stood at 31.4 µM; in the assay with Jurkat it was 26.3 µM; in assay [1] it was 23.3 µM.

`COc1ccc(-c2nn(-c3ccccc3)c(/N=C/N(C)C)c2C=O)cc1`: the GI50 is 9.9 µM with NCI-H661, 12.5 µM with Jurkat and 27.2 µM in assay [1].

With `Cc1cccc(-n2nc(-c3ccccc3)c(C=O)c2/N=C/N(C)C)c1`, the GI50 in the assay with NCI-H661 was found to be 31 µM; with Jurkat, 9.7 µM; in assay [1] it was 8.9 µM.
